# Experimental data published in patent publication US4604383A, “Pyrrolidin-2-ones and medicaments containing them” (Societe Anonyme Styled: SANOFI, priority 1983, dated 1986).
# Like-named read-outs stand apart in the source and are kept apart here.
# How the values were obtained:
# [1] = Potentiation of narcosis with pentobarbital (loss of righting reflex); assay type: in vivo, mouse (CD1 Charles Rivers mice); settings: mouse, products at 100 mg/kg p.os., 60 min before pentobarbital 20 mg/kg i.p.
# Description: For the purpose of evaluating the hypnogenic power of the products, their capacity to potentiate the effects of a subnarcotic dose of pentabarbital in the mouse was studied. The batches were constituted by 10 CD1 Charles Rivers mice, of weight comprised between 20 and 24 g.
# The pentobarbital (20 mg/kg, i.p.) was administered 60 minutes after administration of the products. The drowsiness criterion taken was the loss of the righting reflex.
# [2] = Antagonism of convulsions and of mortality caused by bicucullin; assay type: in vivo, mouse (CD Charles Rivers mice)
# Description: (§1) The anticonvulsant effect of the products in the mouse was evaluated on a model of convulsions caused by electric shock, and on 2 models of convulsions induced by chemical agents: bicuculline and 3-mercaptopropionic acid.
# The batches were constituted by 10 CD Charles Rivers mice of weights comprised between 20 and 22 g. The products were administered orally, 60 minutes before the bicucullin (0.8 mg/kg, i.v.).
# [3] = Acute toxicity, determination of the lethal dose in the mouse; settings: in vivo, po, read-out: Percent toxicity (animals which die in 72 hours)
# Description: The toxicity of the products according to the invention was studied: the products were administered orally, to batches of 5 CD Charles Rivers female mice, of weights comprised between 20 and 24 g. The toxicity was noted during the 72 hours which followed the administration of the products.
# The results expressed as a percentage of animals which die in the 72 hours following the oral administration of the products, are noted in the preceding table.
# [4] = Antagonism of the convulsions induced by electric shock; assay type: in vivo, mouse (CD1 Charles Rivers mice); settings: mouse, oral, 60 min before electroshock; probit method, confidence limits in parentheses, p <= 0.05; read-out: Median effective dose (ED50) of electric shock antagonism
# Description: as §1
# The test was slightly modified from that of Swinyard et al., J. Pharm. Exp. Ther., 1952, 106, 319-330 and Asami et al. Arzneim. Forsch., 1974, 24 (1), 1563-1568. The equipment was composed of a Racia shock generator provided with two occular electrodes delivering a current of 60 volts for 0.3 seconds. The batches were constituted by 10 CD1 Charles Rivers mice of weight comprised between 20 and 24 g. The products were administered orally, 60 minutes before the electroshock.
# [5] = Antagonism to the convulsions caused by 3-mercaptopropionic acid; assay type: in vivo, mouse (CD Charles Rivers mice); settings: mouse, oral, 60 min before 3-mercaptopropionic acid 60 mg/kg s.c.; probit method, confidence limits in parentheses, p <= 0.05; read-out: Median effective dose (ED50) of antagonism to convulsions caused by 3-mercaptopropionic acid
# Description: as §1
# The batches were constituted by 10 CD Charles Rivers mice of weights comprised between 20 and 22 g. The products were administered orally 60 minutes before the 3-mercaptopropionic acid (60 mg/kg s.c.).
# [6] = Mus musculus, po, read-out: Median effective dose (ED50) of the antagonism to the effects of bicucullin: Mortality
# [7] = mouse, oral, 60 min before bicucullin 0.8 mg/kg i.v., probit method, confidence limits in parentheses, p < 0.05, read-out: Median effective dose (ED50) of the antagonism to the effects of bicucullin: Tonic convulsions
smiles,measurement,setting,value
"CCC1(C)CC(Cc2ccccc2F)NC1=O (stereo not drawn) [SR 42001, 3-ethyl-5-[(2-fluoro-phenyl)-methyl]-3-methyl 2-pyrrolidinone]","Potentiation of pentobarbital, percent of animals in narcosis",[1],20%
same,ED50,[2]; [6],62 mg/kg
same,ED50,[2]; [7],83 mg/kg
same,mortality at 72 h,[3]; 250 mg/kg p.os.,0%
same,mortality at 72 h,[3]; 500 mg/kg p.os.,0%
same,mortality at 72 h,[3]; 1000 mg/kg p.os.,20%
CCC1(C)CC(Cc2ccc(F)cc2)NC1=O (stereo not drawn) [SR 42002],"Potentiation of pentobarbital, percent of animals in narcosis",[1],50%
same,ED50,[4],49 mg/kg
same,ED50,[2]; [7],~100 mg/kg
same,ED50,[5],49 mg/kg
same,mortality at 72 h,[3]; 250 mg/kg p.os.,0%
same,mortality at 72 h,[3]; 500 mg/kg p.os.,0%
same,mortality at 72 h,[3]; 1000 mg/kg p.os.,100%
Cc1ccc(CC2CC(C)(C)C(=O)N2)cc1 (stereo not drawn) [SR 42003],mortality at 72 h,[3]; 250 mg/kg p.os.,0%
same,mortality at 72 h,[3]; 500 mg/kg p.os.,0%
same,mortality at 72 h,[3]; 1000 mg/kg p.os.,0%
CC1CC(Cc2c(F)cccc2Cl)NC1=O (stereo not drawn) [SR 42004],"Potentiation of pentobarbital, percent of animals in narcosis",[1],30%
same,ED50,[4],34 mg/kg
same,ED50,[2]; [6],> 100 mg/kg
same,ED50,[2]; [7],~100 mg/kg
same,ED50,[5],27 mg/kg
same,mortality at 72 h,[3]; 250 mg/kg p.os.,0%
same,mortality at 72 h,[3]; 500 mg/kg p.os.,0%
same,mortality at 72 h,[3]; 1000 mg/kg p.os.,0%
CC1CC(Cc2ccccc2)NC1=O (stereo not drawn) [SR 42010],ED50,[4],105 mg/kg
same,ED50,[5],44 mg/kg
same,mortality at 72 h,[3]; 250 mg/kg p.os.,0%
CCCCC1([Si](C)(C)C)CC(Cc2ccccc2)NC1=O (stereo not drawn) [SR 42133],mortality at 72 h,[3]; 250 mg/kg p.os.,0%
same,mortality at 72 h,[3]; 500 mg/kg p.os.,0%
same,mortality at 72 h,[3]; 1000 mg/kg p.os.,0%
C[Si](C)(C)C1CC(Cc2ccccc2)NC1=O (stereo not drawn) [SR 42134],mortality at 72 h,[3]; 250 mg/kg p.os.,0%
same,mortality at 72 h,[3]; 500 mg/kg p.os.,0%
same,mortality at 72 h,[3]; 1000 mg/kg p.os.,0%
CC1CC(Cc2ccc(Cl)cc2)NC1=O (stereo not drawn) [SR 42354],ED50,[4],34 mg/kg
same,ED50,[2]; [6],66 mg/kg
same,ED50,[2]; [7],63 mg/kg
same,ED50,[5],40 mg/kg
same,mortality at 72 h,[3]; 250 mg/kg p.os.,0%
same,mortality at 72 h,[3]; 500 mg/kg p.os.,0%
CC1CC(Cc2cccc(C(F)(F)F)c2)NC1=O (stereo not drawn) [SR 42401],ED50,[4],39 mg/kg
same,ED50,[2]; [6],72 mg/kg
same,ED50,[2]; [7],62 mg/kg
same,mortality at 72 h,[3]; 250 mg/kg p.os.,0%
same,mortality at 72 h,[3]; 500 mg/kg p.os.,0%
CC1(C)CC(Cc2ccc(Cl)cc2Cl)NC1=O (stereo not drawn) [SR 42508],ED50,[4],50 mg/kg
same,ED50,[2]; [6],73 mg/kg
same,ED50,[2]; [7],~100 mg/kg
same,mortality at 72 h,[3]; 250 mg/kg p.os.,0%
same,mortality at 72 h,[3]; 500 mg/kg p.os.,0%
same,mortality at 72 h,[3]; 1000 mg/kg p.os.,0%
CC1CC(Cc2cccc(Cl)c2)NC1=O (stereo not drawn) [SR 42717],ED50,[4],41 mg/kg
same,ED50,[2]; [6],59 mg/kg
same,ED50,[2]; [7],~100 mg/kg
same,mortality at 72 h,[3]; 250 mg/kg p.os.,0%
same,mortality at 72 h,[3]; 500 mg/kg p.os.,0%
same,mortality at 72 h,[3]; 1000 mg/kg p.os.,100%
CC1(C)CC(Cc2cccc(C(F)(F)F)c2)NC1=O (stereo not drawn) [SR 42725],ED50,[4],34 mg/kg
same,ED50,[2]; [6],66 mg/kg
same,ED50,[2]; [7],~100 mg/kg
same,mortality at 72 h,[3]; 250 mg/kg p.os.,0%
same,mortality at 72 h,[3]; 500 mg/kg p.os.,0%
same,mortality at 72 h,[3]; 1000 mg/kg p.os.,0%
CC(C)C1CC(Cc2ccc(Cl)cc2)NC1=O (stereo not drawn) [SR 42726],ED50,[4],72 mg/kg
same,mortality at 72 h,[3]; 250 mg/kg p.os.,0%
same,mortality at 72 h,[3]; 500 mg/kg p.os.,0%
same,mortality at 72 h,[3]; 1000 mg/kg p.os.,20%
